Measured values as given in PMC3724358 (The journal of physical chemistry. B, 2011).
Changes are numbered by the printed parent chain.

Key:
[1] = biological target: T1, Ht cyt c552 (Hydrogenobacter thermophilus cytochrome c552) (Hydrogenobacter thermophilus, UniProt P15452, M77A); assay: protein film voltammetry titration, pyrolytic graphite edge electrode; format: binding
T1 sequence (P15452 19-98 M77A): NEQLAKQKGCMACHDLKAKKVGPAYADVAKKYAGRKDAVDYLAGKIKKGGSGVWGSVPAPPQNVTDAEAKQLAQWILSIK

[2] = biological target: T2, Ht cyt c552 (Hydrogenobacter thermophilus cytochrome c552) (Hydrogenobacter thermophilus, UniProt P15452); assay: as above; format: binding
T2 sequence (P15452 19-98): T1 sequence (P15452 19-98 M77A) with A59M

For `c1c[nH]cn1` [Im, imidazole], the Kd [1] was 756 µM and the Kd [2] was 2.4 mM.
